Experimental data reported in ChEMBL document CHEMBL6109137, “Design, Synthesis, Evaluation, and SAR of 5-Phenylisoindoline Derivatives, a Potent Class of Small-Molecule Inhibitors Targeting the Programmed Cell Death-1/Programmed Cell Death-Ligand 1 (PD-1/PD-L1) Interaction” (J Med Chem, 2025).
Active and inactive are the calls of the source. The rule behind the calls is not given here.

Columns and labels:
[1] = Toxicity in C57BL/6J mouse implanted with mouse MC38 cells assessed as change in body weight at 5 to 20 mg/kg, ip qd for 13 days; type: organism-based; conditions: in vivo, 312 h, dose 5-20 mg/kg, time 13 day
[2] = biological target: Programmed cell death protein 1/Programmed cell death 1 ligand 1 (Homo sapiens, UniProt Q9NZQ7); assay: Inhibition of interaction of PD-1/PD-L1 (unknown origin) by HTRF analysis; type: protein-complex assay
[3] = biological target: Programmed cell death protein 1/Programmed cell death 1 ligand 1 (Homo sapiens) (UniProt Q15116+Q9NZQ7); assay: Inhibition of PD-1/PD-L1 (unknown origin) interaction in human PBMC cells assessed as increase in IFN-gamma level at 100 nM pretreated with anti-CD3/CD28 and PD-L1 followed by compound addition measured after 72 hrs by ELISA; type: cell-based
[4] = Cytotoxicity against human PBMC cells assessed as inhibition of cell viability by CCK8 assay; type: toxicity, cell-based
PBMC = assay: Inhibition of apoptosis in human PBMC cells assessed as reduction in PD-L1-induced proportion of terminal phase apoptotic cells by flow cytometry; type: functional, cell-based
[5] = Cytotoxicity against human BEAS-2B cells measured after 48 hrs by MTT assay; type: toxicity, cell-based
[6] = Cytotoxicity against human HaCaT cells measured after 48 hrs by MTT assay; type: toxicity, cell-based
[7] = Cytotoxicity against HEK293T cells measured after 48 hrs by MTT assay; type: toxicity, cell-based, HEK-293T; conditions: human
[8] = AUC (0 to 24 hrs) in Sprague-Dawley rat at 1 mg/kg, iv measured for 24 hrs by LC-MS/MS analysis; type: ADME, organism-based; conditions: in vivo
[9] = AUC (0 to infinity) in Sprague-Dawley rat at 1 mg/kg, iv measured for 24 hrs by LC-MS/MS analysis; type: ADME, organism-based; conditions: in vivo
[10] = Tmax in Sprague-Dawley rat at 10 mg/kg, ip measured for 24 hrs by LC-MS/MS analysis; type: ADME, organism-based; conditions: in vivo
[11] = Oral bioavailability in Sprague-Dawley rat at 20 mg/kg measured for 24 hrs by LC-MS/MS analysis; type: ADME, organism-based; conditions: in vivo
[12] = Toxicity in C57BL/6J mouse implanted with mouse MC38 cells assessed as change in excised body weight at 5 to 20 mg/kg, ip qd for 13 days; type: organism-based; conditions: in vivo, 312 h, dose 5-20 mg/kg, time 13 day
[13] = Toxicity in C57BL/6J mouse implanted with mouse MC38 cells assessed as injury in heart at 5 to 20 mg/kg, ip qd for 13 days by H and E staining based analysis; type: organism-based; conditions: in vivo, 312 h, dose 5-20 mg/kg, time 13 day
[14] = Toxicity in C57BL/6J mouse implanted with mouse MC38 cells assessed as injury in spleen at 5 to 20 mg/kg, ip qd for 13 days by H and E staining based analysis; type: organism-based; conditions: in vivo, 312 h, dose 5-20 mg/kg, time 13 day
[15] = Toxicity in C57BL/6J mouse implanted with mouse MC38 cells assessed as injury in lung at 5 to 20 mg/kg, ip qd for 13 days by H and E staining based analysis; type: organism-based; conditions: in vivo, 312 h, dose 5-20 mg/kg, time 13 day
[16] = Toxicity in C57BL/6J mouse implanted with mouse MC38 cells assessed as drug tolerance at 5 to 20 mg/kg, ip qd for 13 days; type: organism-based; conditions: in vivo, 312 h, dose 5-20 mg/kg, time 13 day
[17] = Toxicity in C57BL/6J mouse implanted with mouse MC38 cells assessed as change in serum AST level at 5 to 20 mg/kg, ip qd for 13 days; type: organism-based; conditions: in vivo, 312 h, dose 5-20 mg/kg, time 13 day
[18] = Toxicity in C57BL/6J mouse implanted with mouse MC38 cells assessed as change in serum urea level at 5 to 20 mg/kg, ip qd for 13 days; type: organism-based; conditions: in vivo, 312 h, dose 5-20 mg/kg, time 13 day
MC-38 [19] = assay: Antitumor activity against mouse MC38 cells implanted in C57BL/6J mouse assessed as increase in granzyme B level at 5 to 20 mg/kg, ip qd for 13 days by IHC analysis; type: functional, organism-based; conditions: dose 5-20 mg/kg, time 13.0 day
MC-38 [20] = assay: Inhibition of cell proliferation of mouse MC38 cells implanted in C57BL/6J mouse assessed as reduction in Ki67 level at 5 to 20 mg/kg, ip qd for 13 days by IHC analysis; type: functional, organism-based; conditions: dose 5-20 mg/kg, time 13.0 day
Mus musculus [21] = assay: Restoration of immune function in C57BL/6J mouse implanted with mouse MC38 cells assessed as increase in serum IL-6 level administered intraperitoneally once daily for 13 days by ELISA; type: functional, organism-based; conditions: dose 5-20 mg/kg, route ip, time 13.0 day
Mus musculus [22] = assay: Restoration of immune function in C57BL/6J mouse implanted with mouse MC38 cells assessed as increase in serum IFN-gamma level administered intraperitoneally once daily for 13 days by ELISA; type: functional, organism-based; conditions: dose 5-20 mg/kg, route ip, time 13.0 day
MC-38 [23] = assay: Antitumor activity against mouse MC38 cells implanted in C57BL/6J mouse at 160 mg/kg, IG qd for 7 days relative to control; type: functional; conditions: MC-38, po, 168 h, time 7 day, read-out: TGI
MC-38 [24] = assay: Antitumor activity against mouse MC38 cells implanted in C57BL/6J mouse assessed as tumor growth inhibition administered intragastrically once daily for 7 days; type: functional, cell-based; conditions: dose 40-160 mg/kg, route ig, time 7.0 day
[25] = Toxicity in C57BL/6J mouse implanted with mouse MC38 cells assessed as body weight change at 40 to 160 mg/kg, IG qd for 7 days; type: organism-based; conditions: in vivo, po, 168 h, dose 40-160 mg/kg, time 7 day
[26] = Toxicity in C57BL/6J mouse implanted with mouse MC38 cells assessed as animal mortality at 40 to 160 mg/kg, IG qd for 7 days; type: organism-based; conditions: in vivo, po, 168 h, dose 40-160 mg/kg, time 7 day
[27] = Toxicity in C57BL/6J mouse implanted with mouse MC38 cells assessed as spleen weight ratio at 40 to 160 mg/kg, IG qd for 7 days; type: organism-based; conditions: in vivo, po, 168 h, dose 40-160 mg/kg, time 7 day
[28] = Toxicity in C57BL/6J mouse implanted with mouse MC38 cells assessed as kidney weight ratio at 40 to 160 mg/kg, IG qd for 7 days; type: organism-based; conditions: in vivo, po, 168 h, dose 40-160 mg/kg, time 7 day
[29] = Toxicity in C57BL/6J mouse implanted with mouse MC38 cells assessed as lung weight ratio at 40 to 160 mg/kg, IG qd for 7 days; type: organism-based; conditions: in vivo, po, 168 h, dose 40-160 mg/kg, time 7 day
[30] = Toxicity in C57BL/6J mouse implanted with mouse MC38 cells assessed as change in ALT level at 40 to 160 mg/kg, IG qd for 7 days; type: organism-based; conditions: in vivo, po, 168 h, dose 40-160 mg/kg, time 7 day
[31] = Toxicity in C57BL/6J mouse implanted with mouse MC38 cells assessed as change in AST level at 40 to 160 mg/kg, IG qd for 7 days; type: organism-based; conditions: in vivo, po, 168 h, dose 40-160 mg/kg, time 7 day
[32] = Toxicity in C57BL/6J mouse implanted with mouse MC38 cells assessed as change in neutrophils count at 40 to 160 mg/kg, IG qd for 7 days; type: organism-based; conditions: in vivo, po, 168 h, dose 40-160 mg/kg, time 7 day
[33] = Toxicity in C57BL/6J mouse implanted with mouse MC38 cells assessed as change in RBC count at 40 to 160 mg/kg, IG qd for 7 days; type: organism-based; conditions: in vivo, po, 168 h, dose 40-160 mg/kg, time 7 day
[34] = Toxicity in C57BL/6J mouse implanted with mouse MC38 cells assessed as change in PDW count at 40 to 160 mg/kg, IG qd for 7 days; type: organism-based; conditions: in vivo, po, 168 h, dose 40-160 mg/kg, time 7 day
[35] = Toxicity in C57BL/6J mouse implanted with mouse MC38 cells assessed as change in MCV count at 40 to 160 mg/kg, IG qd for 7 days; type: organism-based; conditions: in vivo, po, 168 h, dose 40-160 mg/kg, time 7 day
[36] = Toxicity in C57BL/6J mouse implanted with mouse MC38 cells assessed as change in HGB count at 40 to 160 mg/kg, IG qd for 7 days; type: organism-based; conditions: in vivo, po, 168 h, dose 40-160 mg/kg, time 7 day

Programmed cell death protein 1/Programmed cell death 1 ligand 1, sequence (Q15116 whole entry): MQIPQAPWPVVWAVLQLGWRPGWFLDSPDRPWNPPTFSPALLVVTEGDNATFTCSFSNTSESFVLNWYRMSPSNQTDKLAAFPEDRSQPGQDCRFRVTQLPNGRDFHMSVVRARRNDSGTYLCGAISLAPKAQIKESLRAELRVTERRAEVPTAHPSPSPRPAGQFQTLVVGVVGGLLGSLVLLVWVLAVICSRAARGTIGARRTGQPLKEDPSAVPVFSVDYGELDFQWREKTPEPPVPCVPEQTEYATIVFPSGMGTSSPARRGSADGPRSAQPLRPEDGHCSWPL
Programmed cell death protein 1/Programmed cell death 1 ligand 1, sequence (Q9NZQ7 whole entry): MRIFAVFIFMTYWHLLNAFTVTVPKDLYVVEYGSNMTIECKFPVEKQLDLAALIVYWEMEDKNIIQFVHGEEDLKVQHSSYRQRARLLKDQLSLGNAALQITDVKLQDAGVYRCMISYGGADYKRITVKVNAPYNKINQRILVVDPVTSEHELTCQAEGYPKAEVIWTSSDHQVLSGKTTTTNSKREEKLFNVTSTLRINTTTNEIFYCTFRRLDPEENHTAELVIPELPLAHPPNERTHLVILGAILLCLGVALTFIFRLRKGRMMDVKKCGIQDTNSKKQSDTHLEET

C[C@H](N)C(=O)N1Cc2ccc(-c3cccc(-c4ccc5c(c4)OCCO5)c3Cl)cc2C1.Cl
Activity [1]: Non-toxic
IC50 [2]: 0.0048 µM
inhibition [3]: Active
IC50 [4]: > 5 µM
inhibition (PBMC): Active
IC50 at 48 h [5]: > 10 µM
IC50 at 48 h [6]: > 100 µM
IC50 at 48 h [7]: > 10 µM
AUC(0-t) at 24 h [8]: 180 ng·h/mL
AUC(0-inf) [9]: 191 ng·h/mL
Tmax [10]: 25.2 min
bioavailability [11]: 21.4%
Activity [12]: Non-toxic
Activity [13]: Non-toxic
Activity [14]: Non-toxic
Activity [15]: Non-toxic
Activity [16]: Non-toxic
Activity [17]: Non-toxic
Activity [18]: Non-toxic
Activity (MC-38 [19]): Active
inhibition (MC-38 [20]): Active
Activity (Mus musculus [21]): Dose-dependent-effect
Activity (Mus musculus [22]): Dose-dependent-effect
inhibition in vivo at 160 mg/kg (MC-38 [23]): 64.4%
inhibition (MC-38 [24]): Dose-dependent-effect
Activity [25]: Non-toxic
Activity [26]: Non-toxic
Activity [27]: Non-toxic
Activity [28]: Non-toxic
Activity [29]: Non-toxic
Activity [30]: Non-toxic
Activity [31]: Non-toxic
Activity [32]: Non-toxic
Activity [33]: Non-toxic
Activity [34]: Non-toxic
Activity [35]: Non-toxic
Activity [36]: Non-toxic
